Experimental data from BindingDB's records for patent US20240148821 (Chugai Seiyaku Kabushiki Kaisha, 2024).
Numbered stars: 1 amine (or outer) side, 2 acyl side, 3 side chain; on linkers, the order of the positions; unused ones are H or OH. Bridge positions count the residues as written; N and C are the ends. Square brackets hold non-standard residues; d marks the D form. Peptide text beside a SMILES is read from it. * marks the point of attachment. hPhe(3-Cl-4-CF3) = N[C@@H](CCc1ccc(C(F)(F)F)c(Cl)c1)C(=O)O; hPhe(3-F,4-CF3) = N[C@@H](CCc1ccc(C(F)(F)F)c(F)c1)C(=O)O; X123 = O=C([C@@H]1C[C@H](n2ccnn2)CN1[*:1])[*:2]; X31 = O=C([C@@H]1C[C@@H](n2ccnn2)CN1[*:1])[*:2]; NMeAla(cPent) = CN[C@@H](CC1CCCC1)C(=O)O; oXylylene = c1ccc(C[*:2])c(C[*:1])c1; NMeCha = CN[C@@H](CC1CCCCC1)C(=O)O; cisHyp = O=C(O)[C@@H]1C[C@H](O)CN1; Hyp = O=C(O)[C@@H]1C[C@@H](O)CN1; NMeD = CN[C@@H](CC(=O)O)C(=O)O; Benzyl(4-Cl) = Clc1ccc(C*)cc1; NMeL = CN[C@@H](CC(C)C)C(=O)O; NMeV = CN[C@H](C(=O)O)C(C)C; Piperidide = C1CCN(*)CC1; X57 = FC(F)Oc1ccc(C*)cc1; Ac5c = NC1(C(=O)O)CCCC1; X106 = Clc1cccc(C*)c1; X94 = COc1cccc(C*)c1; Meb = Cc1ccc(C*)cc1; X87 = Clc1ccccc1C*; Sar = CNCC(=O)O

Molecular target: GTPase KRas (G12D) and Son of Sevenless Homolog 1 (SOS) (Homo sapiens, UniProt P01116, G12D)
Sequence (P01116 whole entry G12D): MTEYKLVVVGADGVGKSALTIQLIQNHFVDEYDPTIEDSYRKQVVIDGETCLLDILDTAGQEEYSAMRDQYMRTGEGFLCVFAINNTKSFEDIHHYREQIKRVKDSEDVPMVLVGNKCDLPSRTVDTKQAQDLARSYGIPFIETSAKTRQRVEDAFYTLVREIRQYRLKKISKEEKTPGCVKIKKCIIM
Sequence (Q07889 whole entry, further chain): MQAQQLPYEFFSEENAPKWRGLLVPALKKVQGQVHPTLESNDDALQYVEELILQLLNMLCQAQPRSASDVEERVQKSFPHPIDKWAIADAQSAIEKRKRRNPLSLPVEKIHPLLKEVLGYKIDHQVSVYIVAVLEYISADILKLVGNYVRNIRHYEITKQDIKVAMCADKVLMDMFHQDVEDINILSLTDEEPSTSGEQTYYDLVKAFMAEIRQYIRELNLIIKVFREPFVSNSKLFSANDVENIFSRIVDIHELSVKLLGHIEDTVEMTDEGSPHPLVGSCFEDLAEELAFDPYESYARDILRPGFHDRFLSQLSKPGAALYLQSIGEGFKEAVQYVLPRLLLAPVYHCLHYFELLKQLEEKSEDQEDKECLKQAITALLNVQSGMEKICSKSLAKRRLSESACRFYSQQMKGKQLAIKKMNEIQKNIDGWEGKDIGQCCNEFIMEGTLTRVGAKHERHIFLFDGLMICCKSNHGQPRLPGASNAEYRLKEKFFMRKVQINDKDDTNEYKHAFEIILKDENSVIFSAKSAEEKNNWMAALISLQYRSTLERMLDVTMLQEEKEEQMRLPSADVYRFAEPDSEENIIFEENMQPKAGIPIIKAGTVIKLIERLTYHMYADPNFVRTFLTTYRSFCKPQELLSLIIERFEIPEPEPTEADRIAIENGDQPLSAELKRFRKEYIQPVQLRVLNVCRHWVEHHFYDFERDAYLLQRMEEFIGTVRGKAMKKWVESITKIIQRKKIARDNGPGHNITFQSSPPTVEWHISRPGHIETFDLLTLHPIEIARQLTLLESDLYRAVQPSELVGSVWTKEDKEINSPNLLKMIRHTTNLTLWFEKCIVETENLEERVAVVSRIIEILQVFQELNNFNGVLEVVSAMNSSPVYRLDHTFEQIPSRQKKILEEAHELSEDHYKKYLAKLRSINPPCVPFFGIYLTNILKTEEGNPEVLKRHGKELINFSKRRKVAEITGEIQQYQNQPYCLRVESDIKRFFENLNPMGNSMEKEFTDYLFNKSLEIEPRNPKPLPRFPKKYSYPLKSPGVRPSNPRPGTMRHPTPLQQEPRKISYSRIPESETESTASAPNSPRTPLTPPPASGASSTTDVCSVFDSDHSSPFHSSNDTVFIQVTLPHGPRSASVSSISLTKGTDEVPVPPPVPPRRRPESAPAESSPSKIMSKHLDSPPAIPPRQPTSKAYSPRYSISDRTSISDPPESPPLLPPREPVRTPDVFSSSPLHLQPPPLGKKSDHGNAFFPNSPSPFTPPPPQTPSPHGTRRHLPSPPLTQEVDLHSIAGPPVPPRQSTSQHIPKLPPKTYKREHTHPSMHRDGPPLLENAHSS
Experiment: AlphaScreen Assay
Experimental: Protein-protein interaction inhibition (PPI) between Kras and SOS1 was measured by energy transfer from nickel-conjugated donor beads to streptavidin-conjugated acceptor beads using biotin-tagged human Kras expressed in E. coli and loaded with GDP after purification and His-tagged human SOS1 enzyme. This measurement utilizes the phenomenon in which donor beads are irradiated with light at 680 nm, such that energy is transferred to acceptor beads through singlet oxygen and light at 520-620 nm is detected from the acceptor beads.

| SMILES | IC50 [nM] |
| --- | --- |
| CC[C@H](C)[C@@H]1NC(=O)[C@H](CC(C)C)N(C)C(=O)C[C@@H](C(=O)N2CCCCC2)N(C)C(=O)[C@H](C(C)C)N(C)C(=O)C2(CCCC2)NC(=O)[C@@H]2C[C@@H](n3ccnn3)CN2C(=O)[C@H](CCc2ccc(C(F)(F)F)c(Cl)c2)NC(=O)CN(C)C(=O)[C@H](CC2CCCC2)N(C)C(=O)CN(C)C(=O)CN(C)C1=O [US20240148821, Compound 2113] ([NMeL]I[Sar][Sar][NMeAla(cPent)][Sar][hPhe(3-Cl-4-CF3)][X31][Ac5c][NMeV][NMeD]-Piperidide; lactam N-11) | 0.47 |
| CC[C@H](C)[C@@H]1NC(=O)[C@H](CC(C)C)N(C)C(=O)C[C@@H](C(=O)N2CCCCC2)N(C)C(=O)[C@H](C(C)C)N(C)C(=O)C2(CCCC2)NC(=O)[C@@H]2C[C@H](n3ccnn3)CN2C(=O)[C@H](CCc2ccc(C(F)(F)F)c(Cl)c2)NC(=O)CN(C)C(=O)[C@H](CC2CCCC2)N(C)C(=O)CN(C)C(=O)CN(C)C1=O [US20240148821, Compound 2115] ([NMeL]I[Sar][Sar][NMeAla(cPent)][Sar][hPhe(3-Cl-4-CF3)][X123][Ac5c][NMeV][NMeD]-Piperidide; lactam N-11) | 1.1 |
| CCO[C@@H]1C[C@H]2C(=O)NC3(CCCC3)C(=O)N(C)[C@@H](CC(C)C)C(=O)N(C)[C@H](C(=O)N3CCCCC3)CC(=O)N(C)[C@@H](CC(C)C)C(=O)N[C@@H]([C@@H](C)CC)C(=O)N(C)CC(=O)N(C)CC(=O)N(C)[C@@H](CC3CCCCC3)C(=O)N(C)CC(=O)N[C@@H](CCc3ccc(C(F)(F)F)c(F)c3)C(=O)N2C1 [US20240148821, Compound 2118] ([NMeL]I[Sar][Sar][NMeCha][Sar][hPhe(3-F,4-CF3)][Hyp](Et)[Ac5c][NMeL][NMeD]-Piperidide; lactam N-11) | 3.2 |
| CC[C@H](C)[C@@H]1NC(=O)[C@H](CC(C)C)N(C)C(=O)C[C@@H](C(=O)N2CCCCC2)N(C)C(=O)[C@H](CC(C)C)N(C)C(=O)C2(CCCC2)NC(=O)[C@@H]2C[C@H](OCc3cccc(Cl)c3)CN2C(=O)[C@H](CCc2ccc(C(F)(F)F)c(F)c2)NC(=O)CN(C)C(=O)[C@H](CC2CCCCC2)N(C)C(=O)CN(C)C(=O)CN(C)C1=O [US20240148821, Compound 2126] ([NMeL]I[Sar][Sar][NMeCha][Sar][hPhe(3-F,4-CF3)][cisHyp](X106)[Ac5c][NMeL][NMeD]-Piperidide; lactam N-11) | 37 |
| CCO[C@H]1C[C@H]2C(=O)NC3(CCCC3)C(=O)N(C)[C@@H](CC(C)C)C(=O)N(C)[C@H](C(=O)N3CCCCC3)CC(=O)N(C)[C@@H](CC(C)C)C(=O)N[C@@H]([C@@H](C)CC)C(=O)N(C)CC(=O)N(C)CC(=O)N(C)[C@@H](CC3CCCCC3)C(=O)N(C)CC(=O)N[C@@H](CCc3ccc(C(F)(F)F)c(F)c3)C(=O)N2C1 [US20240148821, Compound 2127] ([NMeL]I[Sar][Sar][NMeCha][Sar][hPhe(3-F,4-CF3)][cisHyp](Et)[Ac5c][NMeL][NMeD]-Piperidide; lactam N-11) | 4.5 |
| CC[C@H](C)[C@@H]1NC(=O)[C@H](CC(C)C)N(C)C(=O)C[C@@H](C(=O)N2CCCCC2)N(C)C(=O)[C@H](CC(C)C)N(C)C(=O)C2(CCCC2)NC(=O)[C@@H]2C[C@@H](OCc3ccc(OC(F)F)cc3)CN2C(=O)[C@H](CCc2ccc(C(F)(F)F)c(F)c2)NC(=O)CN(C)C(=O)[C@H](CC2CCCCC2)N(C)C(=O)CN(C)C(=O)CN(C)C1=O [US20240148821, Compound 2128] ([NMeL]I[Sar][Sar][NMeCha][Sar][hPhe(3-F,4-CF3)][Hyp](X57)[Ac5c][NMeL][NMeD]-Piperidide; lactam N-11) | 15 |
| CC[C@H](C)[C@@H]1NC(=O)[C@H](CC(C)C)N(C)C(=O)C[C@@H](C(=O)N2CCCCC2)N(C)C(=O)[C@H](CC(C)C)N(C)C(=O)C2(CCCC2)NC(=O)[C@@H]2C[C@H](OCc3ccc(Cl)cc3)CN2C(=O)[C@H](CCc2ccc(C(F)(F)F)c(F)c2)NC(=O)CN(C)C(=O)[C@H](CC2CCCCC2)N(C)C(=O)CN(C)C(=O)CN(C)C1=O [US20240148821, Compound 2129] ([NMeL]I[Sar][Sar][NMeCha][Sar][hPhe(3-F,4-CF3)][cisHyp](Benzyl(4-Cl))[Ac5c][NMeL][NMeD]-Piperidide; lactam N-11) | 46 |
| CC[C@H](C)[C@@H]1NC(=O)[C@H](CC(C)C)N(C)C(=O)C[C@@H](C(=O)N2CCCCC2)N(C)C(=O)[C@H](CC(C)C)N(C)C(=O)C2(CCCC2)NC(=O)[C@@H]2C[C@@H](OCc3ccc(C)cc3)CN2C(=O)[C@H](CCc2ccc(C(F)(F)F)c(F)c2)NC(=O)CN(C)C(=O)[C@H](CC2CCCCC2)N(C)C(=O)CN(C)C(=O)CN(C)C1=O [US20240148821, Compound 2130] ([NMeL]I[Sar][Sar][NMeCha][Sar][hPhe(3-F,4-CF3)][Hyp](Meb)[Ac5c][NMeL][NMeD]-Piperidide; lactam N-11) | 10 |
| CC[C@H](C)[C@@H]1NC(=O)[C@H](CC(C)C)N(C)C(=O)C[C@@H](C(=O)N2CCCCC2)N(C)C(=O)[C@H](CC(C)C)N(C)C(=O)C2(CCCC2)NC(=O)[C@@H]2C[C@@H](OCc3cccc(OC)c3)CN2C(=O)[C@H](CCc2ccc(C(F)(F)F)c(F)c2)NC(=O)CN(C)C(=O)[C@H](CC2CCCCC2)N(C)C(=O)CN(C)C(=O)CN(C)C1=O [US20240148821, Compound 2131] ([NMeL]I[Sar][Sar][NMeCha][Sar][hPhe(3-F,4-CF3)][Hyp](X94)[Ac5c][NMeL][NMeD]-Piperidide; lactam N-11) | 9.8 |
| CC[C@H](C)[C@@H]1NC(=O)[C@H](CC(C)C)N(C)C(=O)C[C@@H](C(=O)N2CCCCC2)N(C)C(=O)[C@H](CC(C)C)N(C)C(=O)C2(CCCC2)NC(=O)[C@@H]2C[C@H](OCc3ccccc3Cl)CN2C(=O)[C@H](CCc2ccc(C(F)(F)F)c(F)c2)NC(=O)CN(C)C(=O)[C@H](CC2CCCCC2)N(C)C(=O)CN(C)C(=O)CN(C)C1=O [US20240148821, Compound 2132] ([NMeL]I[Sar][Sar][NMeCha][Sar][hPhe(3-F,4-CF3)][cisHyp](X87)[Ac5c][NMeL][NMeD]-Piperidide; lactam N-11) | 91 |
| CC[C@H](C)[C@@H]1NC(=O)[C@H](CC(C)C)N(C)C(=O)C[C@@H](C(=O)N2CCCCC2)N(C)C(=O)[C@H](CC(C)C)N(C)C(=O)C2(CCCC2)NC(=O)[C@@H]2C[C@@H](OCc3ccc(Cl)cc3)CN2C(=O)[C@H](CCc2ccc(C(F)(F)F)c(F)c2)NC(=O)CN(C)C(=O)[C@H](CC2CCCCC2)N(C)C(=O)CN(C)C(=O)CN(C)C1=O [US20240148821, Compound 2133] ([NMeL]I[Sar][Sar][NMeCha][Sar][hPhe(3-F,4-CF3)][Hyp](Benzyl(4-Cl))[Ac5c][NMeL][NMeD]-Piperidide; lactam N-11) | 12 |
| CC[C@H](C)[C@@H]1NC(=O)[C@H](CC(C)C)N(C)C(=O)C[C@@H](C(=O)N2CCCCC2)N(C)C(=O)[C@H](CC(C)C)N(C)C(=O)C2(CCCC2)NC(=O)[C@@H]2C[C@@H](OCc3cccc(Cl)c3)CN2C(=O)[C@H](CCc2ccc(C(F)(F)F)c(F)c2)NC(=O)CN(C)C(=O)[C@H](CC2CCCCC2)N(C)C(=O)CN(C)C(=O)CN(C)C1=O [US20240148821, Compound 2134] ([NMeL]I[Sar][Sar][NMeCha][Sar][hPhe(3-F,4-CF3)][Hyp](X106)[Ac5c][NMeL][NMeD]-Piperidide; lactam N-11) | 9.8 |
| CC[C@H](C)[C@@H]1NC(=O)[C@H](CC(C)C)N(C)C(=O)C[C@@H](C(=O)N2CCCCC2)N(C)C(=O)[C@H](CC(C)C)N(C)C(=O)C2(CCCC2)NC(=O)[C@@H]2C[C@H](OCc3ccc(OC(F)F)cc3)CN2C(=O)[C@H](CCc2ccc(C(F)(F)F)c(F)c2)NC(=O)CN(C)C(=O)[C@H](CC2CCCCC2)N(C)C(=O)CN(C)C(=O)CN(C)C1=O [US20240148821, Compound 2135] ([NMeL]I[Sar][Sar][NMeCha][Sar][hPhe(3-F,4-CF3)][cisHyp](X57)[Ac5c][NMeL][NMeD]-Piperidide; lactam N-11) | 88 |
| CC[C@H](C)[C@@H]1NC(=O)[C@H](CC(C)C)N(C)C(=O)C[C@@H](C(=O)N2CCCCC2)N(C)C(=O)[C@H](CC(C)C)N(C)C(=O)C2(CCCC2)NC(=O)[C@@H]2C[C@H](OCc3cccc(OC)c3)CN2C(=O)[C@H](CCc2ccc(C(F)(F)F)c(F)c2)NC(=O)CN(C)C(=O)[C@H](CC2CCCCC2)N(C)C(=O)CN(C)C(=O)CN(C)C1=O [US20240148821, Compound 2136] ([NMeL]I[Sar][Sar][NMeCha][Sar][hPhe(3-F,4-CF3)][cisHyp](X94)[Ac5c][NMeL][NMeD]-Piperidide; lactam N-11) | 39 |
| CC[C@H](C)[C@@H]1NC(=O)[C@H](CC(C)C)N(C)C(=O)C[C@@H](C(=O)N2CCCCC2)N(C)C(=O)[C@H](CC(C)C)N(C)C(=O)C2(CCCC2)NC(=O)[C@@H]2C[C@H](OCc3ccccc3C)CN2C(=O)[C@H](CCc2ccc(C(F)(F)F)c(F)c2)NC(=O)CN(C)C(=O)[C@H](CC2CCCCC2)N(C)C(=O)CN(C)C(=O)CN(C)C1=O [US20240148821, Compound 2137] ([NMeL]I[Sar][Sar][NMeCha][Sar][hPhe(3-F,4-CF3)][cisHyp](oXylylene)[Ac5c][NMeL][NMeD]-Piperidide; lactam N-11) | 69 |
| CC[C@H](C)[C@@H]1NC(=O)[C@H](CC(C)C)N(C)C(=O)C[C@@H](C(=O)N2CCCCC2)N(C)C(=O)[C@H](CC(C)C)N(C)C(=O)C2(CCCC2)NC(=O)[C@@H]2C[C@@H](OCc3ccccc3Cl)CN2C(=O)[C@H](CCc2ccc(C(F)(F)F)c(F)c2)NC(=O)CN(C)C(=O)[C@H](CC2CCCCC2)N(C)C(=O)CN(C)C(=O)CN(C)C1=O [US20240148821, Compound 2138] ([NMeL]I[Sar][Sar][NMeCha][Sar][hPhe(3-F,4-CF3)][Hyp](X87)[Ac5c][NMeL][NMeD]-Piperidide; lactam N-11) | 8.6 |
| CC[C@H](C)[C@@H]1NC(=O)[C@H](CC(C)C)N(C)C(=O)C[C@@H](C(=O)N2CCCCC2)N(C)C(=O)[C@H](CC(C)C)N(C)C(=O)C2(CCCC2)NC(=O)[C@@H]2C[C@@H](OCc3ccccc3C)CN2C(=O)[C@H](CCc2ccc(C(F)(F)F)c(F)c2)NC(=O)CN(C)C(=O)[C@H](CC2CCCCC2)N(C)C(=O)CN(C)C(=O)CN(C)C1=O [US20240148821, Compound 2139] ([NMeL]I[Sar][Sar][NMeCha][Sar][hPhe(3-F,4-CF3)][Hyp](oXylylene)[Ac5c][NMeL][NMeD]-Piperidide; lactam N-11) | 23 |
